Experimental data reported in patent US7635701B2 (Glaxo Group Limited, priority 2002, dated 2009).

What was measured:
[1] = biological target: human cannabinoid CB2 receptor (Homo sapiens, UniProt P34972); test: Cannabinoid CB2 receptor agonist activity in yeast cells (FDGlu fluorescence)
[2] = Particle size analysis on Lecotrac laser particle size analyser, pre and post nanomilling; format: physicochemical; settings: for Post-nanomilling 50% percentile particle size / Post-nanomilling 95% percentile particle size: after wet milling in aqueous 1.5% HPMC with YTZ beads; for Pre-nanomilling 50% percentile particle size / Pre-nanomilling 95% percentile particle size: starting material before nanomilling
Experimental: The particle size of the solid particles of compound (1) may be determined by laser diffraction. A suitable machine for determining particle size by laser diffraction is a Lecotrac laser particle size analyser, using an HELOS optical bench fitted with a QUIXEL dispersion unit.
2.5 g of compound of example 176 was weighed into a […] centrifuge tube. 25 ml of 0.3 mm yttrium zirconium (YTZ) ceramic milling beads (Manufacturer: Tosoh, Japan; Supplier: Glen Creston Ltd., batch no. 5280130030)”) was weighed into a 50 ml milling pot. 22.5 ml of aqueous 1.5% HPMC was measured with a measuring cylinder into a 100 ml beaker. This solution was homogenised for 3 seconds with an Ultra Turrax T25 homogeniser. Approximately 200 mg of the 2.5 g of the compound was added to the HPMC solution and homogenised at the lowest speed setting until the powder was wetted. This was repeated until all the compound had been added. The speed of the homogeniser was then increased to maximum and the suspension was homogenised for a further 3 minutes. This suspension was allowed to stand for 30 minutes in order to allow some of the foam to disperse. The suspension was then poured into the 50 ml pot containing the YTZ milling beads, stirring to release any trapped air. The lid to the pot was then fitted and the pot sealed with some Nesco film. This procedure was repeated for a second 50 ml nanomilling pot and both pots were placed on a Retsch mill and milled for a total of 8 hours.
The milling pots were removed from the Retsch mill and left to cool and for the foam to disperse overnight. In the morning the suspension and bead mixture was passed through a 200μ, 40 mm diameter screen. The contents from each 50 ml pot was washed with aqueous 1.5% HPMC: 10% of the original suspension volume (i.e. 2.5 ml). The suspension from the 2 pots was combined to make 1 batch. The suspension obtained from the method above was named the concentrate.
A particle size analysis was carried out on the Lecotrac laser particle size analyser. The results are shown in Table B along with the results from the starting material for comparison:
Compounds of Examples 19, 34, 194, 217, 228, 247 were nanomilled on a 1 g scale using the process described above and the particle size analysed pre and post nanomilling.

Chain of human cannabinoid CB2 receptor (P34972 whole entry): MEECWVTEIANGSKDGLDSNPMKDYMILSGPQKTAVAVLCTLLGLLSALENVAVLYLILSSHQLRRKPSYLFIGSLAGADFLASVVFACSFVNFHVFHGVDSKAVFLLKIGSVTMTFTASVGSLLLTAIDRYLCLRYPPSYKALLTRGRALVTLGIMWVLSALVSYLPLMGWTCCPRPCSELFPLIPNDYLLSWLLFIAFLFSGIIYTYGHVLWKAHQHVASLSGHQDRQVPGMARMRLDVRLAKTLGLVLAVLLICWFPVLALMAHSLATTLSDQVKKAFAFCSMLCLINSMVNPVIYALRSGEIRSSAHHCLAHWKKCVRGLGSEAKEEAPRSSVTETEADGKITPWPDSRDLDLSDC

O=C(NCC1CCCCC1)c1cnc(Nc2ccccc2)nc1C(F)(F)F [Example 5] gave an EC50 [1] of 20 to 300 nM.
For N#Cc1ccc(Nc2ncc(C(=O)NCC3CCOCC3)c(C(F)(F)F)n2)cc1Cl [Ex 217, 2-(4-Cyano-3-chloro-phenylamino)-4-trifluoromethyl-pyrimidine-5-carboxylic acid (tetrahydro-pyran-4-ylmethyl)-amide], the “Post-nanomilling 50% percentile particle size” value [2] was 0.34 μ, the “Post-nanomilling 95% percentile particle size” value [2] was 1.30 μ and the “Pre-nanomilling 50% percentile particle size” value [2] was 5.70 μ. For the same compound, the “Pre-nanomilling 95% percentile particle size” value [2] was 34.9 μ.
With O=C(c1cnc(Nc2cccc(Br)c2)nc1C(F)(F)F)N1CCCCC1 [Example 12] the EC50 [1] was 20 to 300 nM.
For CC(C)CNC(=O)c1cnc(Nc2cccc(Cl)c2)nc1C(F)(F)F [Example 210], the EC50 [1] was 20 to 300 nM.
N#Cc1ccc(Nc2ncc(C(=O)NCC3CCC3)c(C(F)(F)F)n2)cc1Cl [Example 197] gave an EC50 [1] of 20 to 300 nM.
In the case of O=C(NCC1CCCC1)c1cnc(Nc2ccc(F)c(Cl)c2)nc1C(F)(F)F [Ex 247, 2-(3-Chloro-4-fluoro-phenylamino)-4-trifluoromethyl-pyrimidine-5-carboxylic acid cyclopentylmethyl-amide], the “Post-nanomilling 50% percentile particle size” value [2] is reported as 0.64 μ, the “Post-nanomilling 95% percentile particle size” value [2] is reported as 2.53 μ and the “Pre-nanomilling 50% percentile particle size” value [2] is reported as 13.2 μ. For the same compound, the “Pre-nanomilling 95% percentile particle size” value [2] was 68.7 μ.
O=C(NCC1CCCO1)c1cnc(Nc2cccc(F)c2)nc1C(F)(F)F (stereo in doubt) [Example 73, 2-(3-Fluoro-phenylamino)-4-trifluoromethyl-pyrimidine-5-carboxylic acid [(R)-1-(tetrahydro-furan-2-yl)methyl]-amide] showed an EC50 [1] of 300 to 1000 nM.
Compound O=C(NCC1(O)CCCCC1)c1cnc(Nc2cccc(F)c2)nc1C(F)(F)F [Example 86, 2-(3-Fluoropheny1-amino)4-trifluoro-methyl-pyrimidine-5-carboxylic acid(1-hydroxy-cyclohexyl-methyl)amide] has an EC50 [1] of 300 to 1000 nM.
With N#Cc1ccc(Nc2ncc(C(=O)NCC3CCCC3)c(C(F)(F)F)n2)cc1 [Example 176, 2-(4-Cyanophenylamino)-4-trifluoromethyl-pyrimidine-5-carboxylic acid cyclopentylmethyl-amide] the “Post-nanomilling 50% percentile particle size” value [2] was 0.33 μ, the “Post-nanomilling 95% percentile particle size” value [2] was 1.78 μ and the “Pre-nanomilling 50% percentile particle size” value [2] was 13.15 μ. For the same compound, the “Pre-nanomilling 95% percentile particle size” value [2] was 68.7 μ.
O=C(NC1CCSCC1)c1cnc(Nc2cccc(Cl)c2Cl)nc1C(F)(F)F [Example 81, 2-(2,3-Diclorophenylamino)-4-trifluoromethyl-pyrimidine-5-carboxylic acid (tetrahydro-thiopyran-4-yl)-amide] showed an EC50 [1] of 300 to 1000 nM.
For O=C(NCC1CCCCC1)c1cnc(Nc2cccc(F)c2)nc1C(F)(F)F [Example 19, 2-(3-Fluorophenylamino)-4-trifluoromethylpyrimidine-5-arboxylic acid cyclohexylmethyl-amide], the “Post-nanomilling 50% percentile particle size” value [2] was 0.40 μ, the “Post-nanomilling 95% percentile particle size” value [2] was 1.40 μ and the “Pre-nanomilling 50% percentile particle size” value [2] was 5.22 μ. For the same compound, the “Pre-nanomilling 95% percentile particle size” value [2] was 25.5 μ.
